Laboratory results: patent publication US6156700A, “3-(1,2-Benzisothiazol- and isoxazol-5-yl)-2,4(1H,3H)-pyrimidinedione or thione and 3-(1,2-benzisothiazol- and isoxazol-5-yl)-4(3H)-pyrimidinone or thione herbicidal agents” (American Cyanmid Company, priority 1998, dated 2000)

Key:
MOOVA Monochoria = assay: Preemergence weed control, flooded paddy (Table III); format: in vivo, Monochoria vaginalis; parameters: scale not given here
Experimental: (§1) Preemergence herbicidal activity under flooded paddy conditions is determined as follows: plant seeds or propagating organs are planted in the top 0.5 cm of silt loam soil in 32 oz. plastic containers with a diameter of 10.5 cm and no drainage holes. Water is added to these containers and maintained at 1.5 to 3 cm above the soil surface for the duration of the experiment. The test compounds are applied as aqueous/acetone mixtures 50/50 v/v pipetted directly into the flood water to give the equivalent of about 0.0313 to 0.500 kg/ha of active ingredient. The treated containers are placed on greenhouse benches and cared for in accordance with conventional greenhouse procedures. Three to four weeks after treatment, the test is terminated and each container is examined and herbicidal effect rated according to the rating system provided in Example 185. The compounds evaluated are reported by compound number given in Example 185.

[1] = test system: Rice, Tebonnet, Oryza sativa; assay: Postemergence herbicidal evaluation, ORYSAT; format: in vivo, (L.) Tebonnet
Summary of the method: (§2)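 Approximately two-week-old seedlings received a spray of active compound equivalent to about 0.0157–0.500 kg/ha. The carrier was acetone/water (50/50) with 0.5% TWEEN 20. Plants were kept on greenhouse benches and assessed 0–9 versus control after four to five weeks.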

[2] = test system: Sicklepod, Cassia obtusifolia; assay: Postemergence herbicidal evaluation, CASOB; format: in vivo, L.
Summary of the method: as §2

ORYSAT Rice, Tebonnet = assay: Rice tolerance, flooded paddy (Table IV); format: in vivo, Oryza sativa; parameters: scale not given here; settings: crop tolerance
Summary of the method: (§3)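 Herbicidal effect is scored visually on a rating scale three to four weeks after compounds, in aqueous/acetone 50/50 v/v, are added to flood water at roughly 0.0313 to 0.500 kg/ha. Plants: weeds 3 to 5 cm tall, rice at 1.5 to 2.5 leaves.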

Corn, Field, Zea mays [3] = assay: Preemergence herbicidal evaluation, ZEAMX; format: in vivo, L.; settings: 0.2500 kg/ha
Summary of the method: (§4)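 Sow seeds in soil-filled cups; spray aqueous acetone compound solution at about 0.0156–0.500 kg/ha; keep on greenhouse benches with routine watering; after four to five weeks, rate visual injury 0–9 compared with control plants.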

Galium, Galium aparine = assay: Postemergence herbicidal evaluation, GALAP; format: in vivo
Summary of the method: as §2

[4] = test system: Wheat, Winter, cv Riband, Triticum aestivum; assay: Preemergence herbicidal evaluation, TRZAWR; format: in vivo; settings: 0.2500 kg/ha
Summary of the method: as §4

[5] = test system: Foxtail, Green, Setaria viridis; assay: Preemergence herbicidal evaluation, SETVI; format: in vivo, (L.) Beau; settings: 0.2500 kg/ha
Summary of the method: as §4

[6] = test system: Foxtail, Green, Setaria viridis; assay: Postemergence herbicidal evaluation, SETVI; format: in vivo, (L.) Beau
Summary of the method: as §2

[7] = test system: ECHORC Watergrass (Calif.); assay: Preemergence weed control, flooded paddy (Table III); format: in vivo, Echinochloa oryzoides; parameters: scale not given here
Experimental: as §1

[8] = test system: Wheat, Winter, cv Riband, Triticum aestivum; assay: Postemergence herbicidal evaluation, TRZAWR; format: in vivo
Summary of the method: as §2

[9] = test system: Velvetleaf, Abutilon theophrasti; assay: Preemergence herbicidal evaluation, ABUTH; format: in vivo, Medic.; settings: 0.2500 kg/ha
Summary of the method: as §4

[10] = test system: Barnyardgrass, Echinochloa crus-galli; assay: Preemergence herbicidal evaluation, ECHCG; format: in vivo, (L.) Beau; settings: 0.2500 kg/ha
Summary of the method: as §4

[11] = test system: Barnyardgrass, Echinochloa crus-galli; assay: Postemergence herbicidal evaluation, ECHCG; format: in vivo, (L.) Beau
Summary of the method: as §2

CYPIR Rice Flatsedge [12] = assay: Preemergence weed control, flooded paddy (Table III); format: in vivo, Cyperus iria; parameters: scale not given here
Experimental: as §1

Corn, Field, Zea mays [13] = assay: Postemergence herbicidal evaluation, ZEAMX; format: in vivo, L.
Summary of the method: as §2

CYPIR Rice Flatsedge [14] = assay: Postemergence weed control, flooded paddy (Table IV); format: in vivo, Cyperus iria; parameters: scale not given here
Summary of the method: as §3

[15] = test system: Ragweed, Common, Ambrosia artemisifolia; assay: Preemergence herbicidal evaluation, AMBEL; format: in vivo, L.; settings: 0.2500 kg/ha
Summary of the method: as §4

[16] = test system: Rice, Tebonnet, Oryza sativa; assay: Preemergence herbicidal evaluation, ORYSAT; format: in vivo, (L.) Tebonnet; settings: 0.2500 kg/ha
Summary of the method: as §4

[17] = test system: ECHORC Watergrass (Calif.); assay: Postemergence weed control, flooded paddy (Table IV); format: in vivo, Echinochloa oryzoides; parameters: scale not given here
Summary of the method: as §3

[18] = test system: Ragweed, Common, Ambrosia artemisifolia; assay: Postemergence herbicidal evaluation, AMBEL; format: in vivo, L.
Summary of the method: as §2

Cc1nsc2ccc(-n3c(=O)cc(C(F)(F)F)n(C)c3=O)cc12 [Compound 6, 1-Methyl-3-(3-methyl-1,2-benzisothiazol-5-yl)-6-(trifluoromethyl)-2,4(1H,3H)-pyrimidinedione]
6.0: herbicidal effect rating ([7]; 0.0625 kg/ha) | herbicide rating (0-9) ([11]; 0.2500 kg/ha)
3.5: herbicide rating (0-9) (Corn, Field, Zea mays [13]; 0.2500 kg/ha)
1.5: herbicide rating (0-9) ([8]; 0.0630 kg/ha) | herbicide rating (0-9) ([11]; 0.0630 kg/ha)
4.5: herbicide rating (0-9) (Corn, Field, Zea mays [13]; 0.0630 kg/ha)
8.0: herbicide rating (0-9) ([2]; 0.2500 kg/ha) | herbicide rating (0-9) [4] | herbicidal effect rating ([7]; 0.1250 kg/ha) | herbicide rating (0-9) [16]
6.5: herbicide rating (0-9) ([18]; 0.0630 kg/ha)
2.5: herbicide rating (0-9) ([2]; 0.0630 kg/ha)
2.0: herbicide rating (0-9) ([6]; 0.0630 kg/ha)
1.8: herbicide rating (0-9) ([1]; 0.0630 kg/ha)
9.0: herbicidal effect rating (MOOVA Monochoria; 0.0625 kg/ha) | herbicidal effect rating (MOOVA Monochoria; 0.1250 kg/ha) | herbicidal effect rating (MOOVA Monochoria; 0.2500 kg/ha) | herbicidal effect rating (MOOVA Monochoria; 0.5000 kg/ha) | herbicidal effect rating (ORYSAT Rice, Tebonnet; 0.1250 kg/ha) | herbicidal effect rating (ORYSAT Rice, Tebonnet; 0.2500 kg/ha) | herbicidal effect rating (ORYSAT Rice, Tebonnet; 0.5000 kg/ha) | herbicide rating (0-9) (Corn, Field, Zea mays [3]) | herbicide rating (0-9) (Galium, Galium aparine; 0.2500 kg/ha) | herbicide rating (0-9) [5] | herbicide rating (0-9) ([6]; 0.2500 kg/ha) | herbicidal effect rating ([7]; 0.2500 kg/ha) | herbicidal effect rating ([7]; 0.5000 kg/ha) | herbicide rating (0-9) [9] | herbicide rating (0-9) [10] | herbicidal effect rating (CYPIR Rice Flatsedge [12]; 0.0625 kg/ha) | herbicidal effect rating (CYPIR Rice Flatsedge [12]; 0.1250 kg/ha) | herbicidal effect rating (CYPIR Rice Flatsedge [12]; 0.2500 kg/ha) | herbicidal effect rating (CYPIR Rice Flatsedge [12]; 0.5000 kg/ha) | herbicidal effect rating (CYPIR Rice Flatsedge [14]; 0.1250 kg/ha) | herbicidal effect rating (CYPIR Rice Flatsedge [14]; 0.2500 kg/ha) | herbicidal effect rating (CYPIR Rice Flatsedge [14]; 0.5000 kg/ha) | herbicide rating (0-9) [15] | herbicidal effect rating ([17]; 0.1250 kg/ha) | herbicidal effect rating ([17]; 0.2500 kg/ha) | herbicidal effect rating ([17]; 0.5000 kg/ha) | herbicide rating (0-9) ([18]; 0.2500 kg/ha)
5.0: herbicide rating (0-9) ([1]; 0.2500 kg/ha) | herbicide rating (0-9) (Galium, Galium aparine; 0.0630 kg/ha) | herbicide rating (0-9) ([8]; 0.2500 kg/ha)

COc1cc(C)ccc1-c1nsc2ccc(-n3c(=O)cc(C(F)(F)F)n(C)c3=O)cc12 [Compound 7, 3-[3-(2-Methoxy-p-tolyl)-1,2-benzisothiazol-5-yl]-1-methyl-6-(trifluoromethyl)-2,4(1H,3H)-pyrimidinedione]
7.0: herbicidal effect rating (ORYSAT Rice, Tebonnet; 0.1250 kg/ha) | herbicidal effect rating (ORYSAT Rice, Tebonnet; 0.2500 kg/ha) | herbicide rating (0-9) (Corn, Field, Zea mays [3]) | herbicide rating (0-9) ([8]; 0.2500 kg/ha) | herbicide rating (0-9) (Corn, Field, Zea mays [13]; 0.2500 kg/ha)
6.5: herbicide rating (0-9) ([1]; 0.2500 kg/ha)
6.0: herbicide rating (0-9) [4]
8.0: herbicidal effect rating (ORYSAT Rice, Tebonnet; 0.5000 kg/ha) | herbicide rating (0-9) (Galium, Galium aparine; 0.2500 kg/ha) | herbicide rating (0-9) ([11]; 0.2500 kg/ha) | herbicide rating (0-9) [16]
9.0: herbicidal effect rating (MOOVA Monochoria; 0.0313 kg/ha) | herbicidal effect rating (MOOVA Monochoria; 0.0625 kg/ha) | herbicidal effect rating (MOOVA Monochoria; 0.1250 kg/ha) | herbicidal effect rating (MOOVA Monochoria; 0.2500 kg/ha) | herbicidal effect rating (MOOVA Monochoria; 0.5000 kg/ha) | herbicide rating (0-9) ([2]; 0.2500 kg/ha) | herbicide rating (0-9) [5] | herbicide rating (0-9) ([6]; 0.2500 kg/ha) | herbicidal effect rating ([7]; 0.0313 kg/ha) | herbicidal effect rating ([7]; 0.0625 kg/ha) | herbicidal effect rating ([7]; 0.1250 kg/ha) | herbicidal effect rating ([7]; 0.2500 kg/ha) | herbicidal effect rating ([7]; 0.5000 kg/ha) | herbicide rating (0-9) [9] | herbicide rating (0-9) [10] | herbicidal effect rating (CYPIR Rice Flatsedge [12]; 0.0313 kg/ha) | herbicidal effect rating (CYPIR Rice Flatsedge [12]; 0.0625 kg/ha) | herbicidal effect rating (CYPIR Rice Flatsedge [12]; 0.1250 kg/ha) | herbicidal effect rating (CYPIR Rice Flatsedge [12]; 0.2500 kg/ha) | herbicidal effect rating (CYPIR Rice Flatsedge [12]; 0.5000 kg/ha) | herbicidal effect rating (CYPIR Rice Flatsedge [14]; 0.1250 kg/ha) | herbicidal effect rating (CYPIR Rice Flatsedge [14]; 0.2500 kg/ha) | herbicidal effect rating (CYPIR Rice Flatsedge [14]; 0.5000 kg/ha) | herbicide rating (0-9) [15] | herbicidal effect rating ([17]; 0.1250 kg/ha) | herbicidal effect rating ([17]; 0.2500 kg/ha) | herbicidal effect rating ([17]; 0.5000 kg/ha) | herbicide rating (0-9) ([18]; 0.2500 kg/ha)
